Here are results for nine compounds from patent US20260209210A1, “NEW SUBSTITUTED INDOLE-2-CARBOXAMIDES AS PHGDH INHIBITORS” (Boehringer Ingelheim International GmbH, priority 2022, published 2026).

pIC50: −log10 of the molar value.

One series concerns the target T1, PHGDH (Homo sapiens, UniProt O43175).
T1 construct: The full length version of PHGDH enzyme was expressed in BL21 (DE3) E. coli; HIS-tag (N); TEV cleavage site (N); made in house; host or cells: E. coli BL21 (DE3)
T1 sequence (O43175 1-533): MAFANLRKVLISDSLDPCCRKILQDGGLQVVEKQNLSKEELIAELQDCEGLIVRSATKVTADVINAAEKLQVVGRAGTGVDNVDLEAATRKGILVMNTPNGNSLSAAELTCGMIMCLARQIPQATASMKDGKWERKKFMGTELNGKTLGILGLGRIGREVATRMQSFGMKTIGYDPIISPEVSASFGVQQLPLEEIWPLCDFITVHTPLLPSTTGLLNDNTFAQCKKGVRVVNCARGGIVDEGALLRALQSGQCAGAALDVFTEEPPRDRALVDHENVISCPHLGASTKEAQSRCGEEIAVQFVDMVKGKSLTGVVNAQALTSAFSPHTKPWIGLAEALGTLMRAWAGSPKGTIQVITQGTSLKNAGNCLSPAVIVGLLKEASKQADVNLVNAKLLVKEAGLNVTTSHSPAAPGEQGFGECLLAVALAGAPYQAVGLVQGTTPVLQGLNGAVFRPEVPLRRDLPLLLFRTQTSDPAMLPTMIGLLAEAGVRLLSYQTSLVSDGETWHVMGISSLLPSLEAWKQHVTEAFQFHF
The experiment in a line: 3-Phosphoglycerate dehydrogenase (PHGDH) Fluorescence Intensity Assay. Particulars: full length recombinant PHGDH, 500 μM NAD and 500 μM 3-PG, 240 minutes incubation, room temperature. The series is classed as biochemical. The source says: 3-Phosphoglycerate dehydrogenase (PHGDH) Fluorescence Intensity Assay This assay is used to identify compounds which inhibit the enzymatic activity of PHGDH which catalyzes the reaction of 3-Phosphoglycerate (3-PG) and NAD to 3-Phosphohydroxypyruvate and NADH.
The produced NADH is used in a coupled reaction for Diaphorase mediated reduction of Resazurin to Resorufin which can be measured in a Fluorescence Intensity readout.
The full length version of PHGDH enzyme was expressed in BL21 (DE3) E. coli through transformation with a plasmid containing the PHGDH cDNA with an N-terminal HIS-tag and a TEV cleavage site. The recombinant protein was then isolated with Ni-NTA beads and eluted on MONO Q ion exchange chromatography columns. The fractions corresponding to PHGDH were de-salted and concentrated to be used in the biochemical assay.
The 3-phosphoglycerate substrate was purchased from Sigma. NAD, Diaphorase and Resazurin were purchased from Sigma Aldrich.
Compounds are dispensed onto assay plates (black, low volume, flat bottom 384 well, Corning) using an Access Labcyte Workstation with the Labcyte Echo 55× from a DMSO solution. For the chosen highest assay concentration of 100 μM, 150 nl of compound solution are transferred from a 10 mM DMSO compound stock solution. A series of 11 concentrations (10 1:5 steps) is transferred for each compound.
DMSO is added such that every well has a total of 150 nl compound solution.
The assay has been performed using 500 μM NAD and 500 μM 3-PG (final assay concentrations).
5 μl of PHGDH protein (final assay concentration 100 ng/ml) in assay buffer (125 mM Tris-HCl, pH 7.5; 56.25 mM hydrazine sulfate pH 9.0; 2.5 mM EDTA; assay specific NAD concentration; 0.0125% Tween20) are added to the 150 nl of compounds.
10 μl of a mix containing assay specific 3-PG concentration (500 μM), Resazurin (25 µM final assay concentration) and Diaphorase (35 μg/ml final assay concentration) are added. Plates are kept at room temperature. After 240 minutes incubation time the fluorescence signal is measured in a PerkinElmer Envision HTS Multilabel Reader with an excitation wavelength at 530-560 nm and an emission wavelength at 590 nm.
Each plate contains negative controls (diluted DMSO instead of test compound; reaction as described with PHGDH protein) and positive controls (diluted DMSO instead of test compound; reaction as described with buffer instead of PHGDH protein). Negative and positive control values are used for normalization.
A known inhibitor of PHGDH activity is used as internal control.
IC50 values are calculated and analyzed in the MEGALAB IC50 application using a 4 parametric logistic model.

Series [1] is described as follows: Drug transport across human Caco-2 cells (permeability). Particulars: pH 7.2, 37° C.; for efflux ratio: PEBA/PEAB, Caco-2 monolayers; for Papp A→B: apical-to-basal (absorptive) apparent permeability across Caco-2 monolayers, read-out: PEAB; for Papp B→A: basal-to-apical (secretory) apparent permeability across Caco-2 monolayers, read-out: PEBA. The series is classed as in vitro ADME. The protocol:
The assay provides information on the potential of a compound to pass the cell membrane, on the extent of oral absorption as well as on whether the compound is actively transported by uptake and/or efflux transporters. Permeability measurements across polarized, confluent Caco-2 cell monolayers grown on permeable filter supports are used as the in vitro absorption model. Apparent permeability coefficients (PE) of the compounds across the Caco-2 monolayers are measured (pH 7.2, 37° C.) in apical-to-basal (AB) (absorptive) and basal-to-apical (BA) (secretory) transport direction. AB permeability (PEAB) represents drug absorption from the intestine into the blood and BA permeability (PEBA) drug secretion from the blood back into the intestine via both passive permeability as well as active transport mechanisms mediated by efflux and uptake transporters that are expressed on the Caco-2 cells. The compounds are assigned to permeability/absorption classes by comparison of the AB permeabilities with the AB permeabilities of reference compounds with known in vitro permeability and oral absorption in the human. Identical or similar permeabilities in both transport directions indicate passive permeation, vectorial permeability points to additional active transport mechanisms. […] Active transport is concentration-dependently saturable.
Caco-2 cells obtained from the Leibniz Institute DSMZ-German Collection of Microorganisms and Cell Cultures GmbH (1-2×10^5 cells/1 cm^2 area) are seeded on filter inserts (Costar transwell polycarbonate or PET filters, 0.4 μm pore size) and cultured (DMEM) for 10 to 25 days. Compounds are dissolved in appropriate solvent (like DMSO, 1-20 mM stock solutions). Stock solutions are diluted with HTP-4 buffer (128.13 mM NaCl, 5.36 mM KCl, 1 mM MgSO4, 1.8 mM CaCl2), 4.17 mM NaHCO3, 1.19 mM Na2HPO4×7H2O, 0.41 mM NaH2PO4×H2O, 15 mM HEPES, 20 mM glucose, pH 7.2) containing 0.25% BSA to prepare the transport solutions (0.1-300 μM compound, final DMSO≤0.5%). The transport solution (TL) is applied to the apical or basolateral donor side for measuring A-B or B-A permeability (3 filter replicates), respectively. The receiver side contains HTP-4 buffer supplemented with 0.25% BSA. Samples are collected at the start and end of experiment from the donor and at various time intervals (0, 30, 60, and 90 minutes) for up to 2 hours also from the receiver side for concentration measurement by HPLC-MS/MS or scintillation counting. Sampled receiver volumes are replaced with fresh receiver solution. Compounds are assigned to the following permeability/oral absorption classes: • Very low: […] • Low: 1×10^−7 cm/s<PEAB<6×10^−7 cm/sec • Moderate: 6×10^−7 cm/sec<PEAB<5×10^−6 cm/sec • Good: 5×10^−6 cm/s<[…]
Compounds are classified with respect to (permeability) efflux ratios (PEBA/PEAB) given below whether they are likely to be actively transported: • no: 0.67<=ratio <=1.5 • probable (active efflux): 1.5<ratio <=2 • probable (active uptake): […] • yes (active efflux): 2<ratio • yes (active uptake): ratio <0.5
A general note: Caco-2 cells form a polarised layer with tight junctions and transporters.

As for `Cc1cc2c(cc(C(=O)N[C@H](C)c3ccc(C4(C(=O)O)CCOCC4)cc3)n2C)c(Cl)c1F` [Example 3], the pIC50 at PHGDH was 8.00. Also, in series [1], the efflux ratio worked out at 0.6, the Papp A→B was found to be 16 ×10⁻⁶ cm/s and the Papp B→A came out at 9.1 ×10⁻⁶ cm/s.

Take `Cc1cc2c(cc(C(=O)N[C@H](C)c3ccc(C4(C(=O)O)CCOCC4)cc3)n2C)c(F)c1F` [Example 4]: the pIC50 on PHGDH is 7.51. For the same compound, in series [1], the efflux ratio was determined as 0.8, the Papp A→B was determined as 12 ×10⁻⁶ cm/s and the Papp B→A amounted to 9.2 ×10⁻⁶ cm/s.

On to `Cc1cc(Cl)c2cc(C(=O)N[C@H](C)c3ccc(S(=O)(=O)C4(C(=O)O)CCCC4)cc3)n(C)c2c1` [Comp-2, reference compound], for which, in series [1], the efflux ratio was 1.8, the Papp A→B came out at 0.2 ×10⁻⁶ cm/s and the Papp B→A is 0.4 ×10⁻⁶ cm/s.

Take `Cc1cc(Cl)c2cc(C(=O)N[C@H](C)c3ccc(S(=O)(=O)C4(C(=O)O)CCOCC4)cc3)n(C)c2c1` [Comp-1, reference compound]: in series [1], the Papp A→B was less than 0.4 ×10⁻⁶ cm/s and the Papp B→A is 0.2 ×10⁻⁶ cm/s.

Consider `Cc1cc(Cl)c2cc(C(=O)N[C@H](C)c3ccc(C4(C(=O)O)CCOCC4)cc3)n(C)c2c1` [Example 5], for which, on PHGDH, the pIC50 was 7.60. In addition, in series [1], the efflux ratio amounted to 1.2, the Papp A→B was determined as 10 ×10⁻⁶ cm/s and the Papp B→A came out at 12 ×10⁻⁶ cm/s.

In the case of `Cc1cc2c(cc(C(=O)N[C@H](C)c3ccc(C4(C(=O)O)CCOCC4)cc3)n2C)c(Cl)c1Cl` [Example 1], the pIC50 on PHGDH was 8.22. In series [1], the efflux ratio worked out at 0.9, the Papp A→B is 17.1 ×10⁻⁶ cm/s and the Papp B→A is 14.6 ×10⁻⁶ cm/s.

For the compound `Cc1cc2c(cc1Cl)cc(C(=O)N[C@H](C)c1ccc(C3(C(=O)O)CCOCC3)cc1)n2C` [Example 6], on PHGDH, the pIC50 was 6.03. Further, in series [1], the efflux ratio stood at 1.1, the Papp A→B was 7.9 ×10⁻⁶ cm/s and the Papp B→A was found to be 8.4 ×10⁻⁶ cm/s.

On to `Cc1cc(Cl)c2cc(C(=O)N[C@H](C)c3ccc(S(=O)(=O)C4(C(=O)O)CC4)cc3)n(C)c2c1` [Comp-3, reference compound], for which, in series [1], the efflux ratio was found to be 17, the Papp A→B was 0.1 ×10⁻⁶ cm/s and the Papp B→A was found to be 1.7 ×10⁻⁶ cm/s.

Turning to `Cc1cc2c(cc(C(=O)N[C@H](C)c3ccc(C4(C(=O)O)CCOCC4)cc3)n2C)c(F)c1Cl` [Example 2], the pIC50 at PHGDH was 7.57. In addition, in series [1], the efflux ratio was 1.2, the Papp A→B turned out to be 11 ×10⁻⁶ cm/s and the Papp B→A amounted to 13 ×10⁻⁶ cm/s.

The pIC50 is the IC50 on a negative log10 scale, so that one unit is a factor of ten. The efflux ratio is a quotient of directional permeabilities that is used to spot active efflux.
